Two substances from patent publication US9605013B2, “Derivatives of hemin with antibacterial and antiviral activity” (OBSCHESTVO S OGRANICHENNOI OTVETSTVENNOSTIYU …, priority 2011, dated 2017) can be followed below.

The test system of data set [1] is Staphylococcus aureus No. 25923 ATCC. The data set can be described thus: Antibacterial specific activity, twofold dilutions, visual growth evaluation. It counts as cell-based. The settings on record: S. aureus 25923; 36° C., 24 hours. In a few lines: (§1)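 Twofold serial broth dilutions, inoculum 5×10^5 CFU/ml, compounds from water or DMSO stocks; 24 h at 36° C. MIC taken visually as last dilution suppressing growth versus compound-free growth control.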

Data set [2] deals with Staphylococcus aureus No. 5 (MRSA). The data set is described as above. It counts as cell-based. Particulars: St. aur No. 5 MRSA; 36° C., 24 hours. The method, boiled down:
as §1

The subject of the next data set is Escherichia coli 4300. The data set is described as above. The data set is classed as cell-based. The settings on record: E. coli 4300; 36° C., 24 hours.
Data set [3] deals with Staphylococcus epidermidis No. 533. Described as above. It counts as cell-based. Particulars: S. epidermis 533; 36° C., 24 hours. The method, boiled down: as §1
The test system of data set [4] is Staphylococcus aureus No. 100 KC. The data set is described as above. It counts as cell-based. The settings on record: S. aureus 100 KC; 36° C., 24 hours. The method, boiled down: as §1
The test system of data set [5] is Enterococcus faecalis No. 559. The data set is described as above. It counts as cell-based. The settings on record: E. faecalis 559; 36° C., 24 hours. The method, boiled down:
as §1

Data set [6] deals with Staphylococcus aureus No. 3797 (MRSA). The description is as above. It counts as cell-based. Particulars: St. aur No. 3797 MRSA; 36° C., 24 hours. The method, boiled down: as §1
Data set [7] concerns Vancomycin-resistant Enterococcus faecium 569. The data set is described as above. It counts as cell-based. Particulars: Vancomycin-resistant E. faecium 569; 36° C., 24 hours. The method, boiled down:
as §1

Data set [8] concerns Bacillus subtilis BKM B-501. Briefly: Antibacterial activity, serial dilutions in liquid MH medium. The data set is classed as cell-based. The settings on record: for MIC: MH medium, 20 h, 37° C., 100% growth inhibition. The protocol:
(§2) The antibacterial activity of the compounds was determined against strains of gram-positive bacteria such as Staphylococcus aureus 209P, Enterococcus faecalis BKM B-871, Micrococcus luteus BKM Ac-2230, Bacillus subtilis BKM B-501, and gram-negative bacteria such as Pseudomonas aeruginosa PAO1 and Escherichia coli KM MGU C-600. BKM strains were acquired from the All-Russia Collection of Microorganisms at the Institute for Biochemistry and Physiology of Microorganisms, Russian Academy of Sciences. Strain Staphylococcus aureus 209P was acquired from the Collection of Microorganisms at the Department of microbiology of the Faculty of Biology of Lomonosov Moscow State University, and Pseudomonas aeruginosa PAO1 was acquired from the Collection of Microorganisms at the Institute of Bioorganic Chemistry of the Russian Academy of Sciences.
(§3) The main parameters characterizing the antibacterial activity are the minimal inhibitory concentration (MIC) and minimal bactericidal concentration (MBC). […] MBC is the least concentration that causes the death of all cells.
(§4) MIC was quantified by inhibiting culture growth in a liquid medium with serial dilutions of compounds using a modified procedure [Amsterdam, D., 1966. “Susceptibility testing of antimicrobials in liquid media,” pp. 52-111. In Loman, V., ed. Antibiotics in laboratory medicine, 4th ed. Williams and Wilkins, Baltimore].
(§5) Bacteria were cultured and tested on an MH liquid medium (Mueller-Hinton medium: a dry extract of beef broth, 4 g/L; starch, 1.5 g/L; casein hydrolyzate, 17.5 g/L; Sigma-Fluka Catalog No. 70192) at 37° C., 100% humidity, and under stirring. Cultures (within 4 to 7 passages after thawing) in the exponential growth phase were used for tests.
(§6) All tested compounds absorb light at 595 nm, a wavelength used for evaluating bacterial culture growth. Therefore, a correction for absorption was applied in estimating the optical density of bacterial suspensions for each compound with account for its concentration in the well. Bacterial growth inhibition (GI) as percentage after 20 hours of incubating cells with compounds was derived from the optical density (A) measured in every well at a wavelength of 595 nm using the equation: GIi=[(Act−Ac0)−(Ait−Ai0)]×100/(Act−Ac0), (1) wherein the subscripts have the following meanings: i denotes the well number, c denotes a control well with bacteria whereto the tested compound is not inserted, 0 refers to the measurement taken immediately once the tested compound was inserted to the well, and t refers to the measurement taken 20 hours after the compound was inserted.
(§7) The protocol for the determination of experimental antibacterial activity of the tested compounds was as follows. A cryovial with the test strain culture in a medium with 7% DMSO stored in liquid nitrogen, was rapidly defrosted, and 1.5 mL of the fresh MH medium was inoculated with 100 μL of the cell suspension. Cells were grown for one day at 37° C. and stirred on an orbital shaker at 150 rpm. The morphologic features of the strain and the absence of contamination with foreign bacteria were verified by: (a) inoculation on an agarized (15 g/L agar) MH medium and observation of the shape and color of the grown colonies and (b) examination of characteristic morphologic features under a microscope (Mikmed-2, LOMO, Russia) equipped with a 40× objective lens. Further, the bacteria were cultured in 1 mL of the liquid MH medium at 37° C. under stirring. The cells were reseeded every day. Cell cultures were used in tests starting with 3rd reseeding and ending with 6th one.
(§8) For testing, 5 μL of a bacterial suspension in the stationary growth phase was transferred to 1 mL of a sterile MH medium and incubated until the exponential growth phase was attained (3 to 5 h, 37° C., stirring at 150 rpm). To estimate the microorganism concentration, the optical density (A) of the resulting bacterial culture was measured at a wavelength of 595 nm. […]

The subject of data set [9] is Micrococcus luteus BKM Ac-2230. Described as above. Particulars: for MIC: MH medium, 20 h, 37° C., 100% growth inhibition; for MBC: no colonies on agarized MH medium. It counts as cell-based. On the procedure: as §2, §3, §4, §5, §6, §7, §8
The test system of data set [10] is Herpes Simplex Virus type 2 strain G (No. VR-734 ATCC). The data set can be described thus: Antiviral activity, virus cytopathogenic action in Vero cells. The data set is classed as cell-based. Further details: key: 0: CPA (cytopathogenic action) is not detected; 1: up to 25% virus-infected monolayer; from 25% to 50%; 3: from 50% to 75%; 4: from 75% to 100%. The settings on record: 48 hours. The protocol: […] used in the study were used Herpes Simplex Virus type 1 (the Collection of Microorganisms at the Scientific Research Institute of Virology, strain EC), Herpes Simplex Virus type 2 strain G (No. VR-734 ATCC), and human cytomegalovirus strain AD169 (No. VR-538 ATCC). Herpes Simplex viruses type 1 and type 2 were cultured in Vero cells. The cells were incubated in MEM Eagle growth medium (MEM, BioloT, St-Petersburg, 1.3.3) supplemented with 10% fetal bovine serum (BioloT, St-Petersburg, 1.3.12) in Sanyo MCO-15AC gas-flow thermostat (37° C., 5% CO2) (Tokyo, Japan). A seed dose was 2×10^5 cells/ml in the starting inoculum or 2×10^4 cells/well. Herpes Simplex viruses were cultured under the same conditions in the MEM medium without serum (maintenance medium). Starting viral titers were 10^7 TCID50/ml.
For DMSO-soluble preparations, stock solutions were prepared in a concentration of 10 mM in DMSO. For water-soluble preparations, a stock solution prepared had the same concentration in the MEM medium (Minimal Essential Medium) for cell cultures. To control cytotoxicity (see below), the stock solution was diluted in the medium to a concentration of 100 μM and ten-fold serial dilutions of the preparations were made in the MEM medium (for DMSO-soluble compounds—in the MEM medium comprising 3% DMSO). The following concentrations of the preparations were used in the study of […]: if toxicity was not found, the concentrations of 100 μM preparations were 100, 10 and 1 μM; if toxicity was detected, the concentrations of 100 μM preparations were 10, 1, and 0.1 μM. Acyclovir (10 μg/ml) was used for Herpes Simplex viruses of both types as a reference preparation to control the viral model validity.
To study antiviral activity, plate wells with a cell monolayer were added with the preparations in an amount of 0.1 ml/well. To compensate a reduction in the concentration of the preparations, which takes place in the following addition of viruses, twofold concentrations of compounds (i.e. 200, 20 and 2 or 20, 2 and 0.2 μM for […] concentrations of 100 μM preparations, respectively) were used, incubated for an hour and then were infected with the examined 0.1 ml/well viruses in doses 1, 10 and 100 TCID50 (50% tissue infectious dose).
The virus-specific cytogenic action was manifested in an increase in the size of cells, their rounding, and detachment from a substrate. These morphological characteristics served as their marked difference from the cells subjected to a toxic action of high concentrations of the examined preparations. The latter acquired spindle-like shape, lost contacts with neighboring cells of the monolayer, and their boundaries became more distinct.
Intensity of the virus-specific changes in the cells were semi-quantified using a 4-score system: 0—CPA (cytopathogenic action) is not detected; 1—up to 25% virus-infected monolayer; 2—from 25% to 50%; 3—from 50% to 75%; and 4—from 75% to 100%. The antiviral activity of a compound was evaluated according to their ability to reduce the manifestation of cytopathogenic action in the plate wells compared to the control values. Differences with the control values by 1 score and more were considered to be significant.
(Damage to the host cells serves as the signal in cytopathic effect assays.)

In data set [11] the test system is Enterococcus faecalis BKM B-871. The data set can be described thus: Antibacterial activity, serial dilutions in liquid MH medium. Particulars: MH medium, 20 h, 37° C., 100% growth inhibition. The data set is classed as cell-based. On the procedure: as §2, §3, §4, §5, §6, §7, §8

A value given as a limit tells only on which side of the number the result lay.

A word on the MIC: it is the smallest concentration in the dilution series that meets the test's criterion for growth inhibition. The MBC is the smallest concentration meeting the test's criterion for killing. For the substance “6,7-bis-[(Dimethyl Ester N^α-L-Glycyl)-L-glutamyl]-Protohemin (IX) [XIV]”, the MIC was 0.39 µM in data set [1]; 3.12 µM in data set [2]; greater than 50.0 µM against Escherichia coli 4300; 1.04 µM in [3]; 2.6 µM in data set [4]; 3.12 µM in [5]. The MIC is 2.6 µM in data set [6], greater than 50.0 µM in [7], 6.3 µM in data set [8] and 1.6 µM in data set [9]. Moreover, in “Water solubility”, the water solubility entry is “water-insoluble”. In addition, the values for the MBC in data set [8] (no colonies on agarized MH medium) and in data set [9] were 25 µM and 6.3 µM, respectively.

With “6,7-bis-[(Dimethyl Ester N^α-L-Seryl)-L-glutamyl]-Protohemin (IX)”, in the data set “Water solubility”, the water solubility result was “water-soluble”. Further, the “manifestation of the virus CPA” value is recorded as 1 (up to 25% virus-infected monolayer) in [10] (HSV-2, virus dose 1, concentration 0.1 μM); 1 (up to 25% virus-infected monolayer) in [10] (HSV-2, virus dose 1, concentration 1 μM); 0^1 in [10] (HSV-2, virus dose 1, concentration 10 μM); 2 (from 25% to 50%) in [10] (HSV-2, virus dose 10, concentration 0.1 μM); 2 (from 25% to 50%) in [10] (HSV-2, virus dose 10, concentration 1 μM); 1.5 scores in data set [10] (HSV-2, virus dose 10, concentration 10 μM). Further, the “manifestation of the virus CPA” value in [10] (HSV-2, virus dose 100, concentration 0.1 μM) was 3 (from 50% to 75%); in data set [10] (HSV-2, virus dose 100, concentration 1 μM), 3 (from 50% to 75%); in [10] (HSV-2, virus dose 100, concentration 10 μM), 3 (from 50% to 75%). The MIC in [8] was found to be 50 µM; in data set [9] it was 12.5 µM; in data set [11] it was 50 µM. The MBC in data set [9] was determined as 25 µM.
